Experimental data: patent US8168651B2, “Protein kinase modulators” (Cylene Pharmaceuticals, Inc., priority 2008, dated 2012)

Assays:
Assay in all cases: Standardized radiometric kinase assays, percentage of activity at 0.5 μM;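 note: Read-out is ³³P-labelled substrate protein phosphorylated by each kinase, captured on filters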
[1] = target: each individual kinase of the panel (Homo sapiens, UniProt P19784)
[2] = target: each individual kinase of the panel (Homo sapiens, UniProt O43318)
[3] = target: each individual kinase of the panel (Homo sapiens, UniProt P07948)
[4] = target: each individual kinase of the panel (Homo sapiens, UniProt P34947)
[5] = target: each individual kinase of the panel (Homo sapiens, UniProt Q04759)
[6] = target: each individual kinase of the panel (Homo sapiens, UniProt Q9BXA7)
[7] = target: each individual kinase of the panel (Homo sapiens, UniProt P53778)
[8] = target: each individual kinase of the panel (Homo sapiens, UniProt P05129)
[9] = target: each individual kinase of the panel (Homo sapiens, UniProt O00418)
Chain of each individual kinase of the panel (Homo sapiens, UniProt O00418) (O00418 2-725 limits assumed): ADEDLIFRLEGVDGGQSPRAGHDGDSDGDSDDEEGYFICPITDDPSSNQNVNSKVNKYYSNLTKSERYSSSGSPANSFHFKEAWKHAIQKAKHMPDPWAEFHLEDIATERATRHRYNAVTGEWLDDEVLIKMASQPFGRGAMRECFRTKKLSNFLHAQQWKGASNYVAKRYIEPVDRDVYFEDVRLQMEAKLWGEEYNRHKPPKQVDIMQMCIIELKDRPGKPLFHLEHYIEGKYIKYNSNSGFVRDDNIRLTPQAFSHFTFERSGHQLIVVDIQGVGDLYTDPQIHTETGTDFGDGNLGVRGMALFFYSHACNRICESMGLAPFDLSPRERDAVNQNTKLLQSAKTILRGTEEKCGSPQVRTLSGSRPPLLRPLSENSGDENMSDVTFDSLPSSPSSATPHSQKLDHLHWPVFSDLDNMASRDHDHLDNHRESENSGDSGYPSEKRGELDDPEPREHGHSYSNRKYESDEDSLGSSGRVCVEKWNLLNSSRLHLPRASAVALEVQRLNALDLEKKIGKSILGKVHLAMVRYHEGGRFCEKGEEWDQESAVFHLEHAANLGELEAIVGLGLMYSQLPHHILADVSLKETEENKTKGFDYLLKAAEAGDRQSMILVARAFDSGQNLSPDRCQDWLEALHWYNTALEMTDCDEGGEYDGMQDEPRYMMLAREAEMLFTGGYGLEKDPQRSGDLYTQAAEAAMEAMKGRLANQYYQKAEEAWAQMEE

[10] = target: each individual kinase of the panel (Homo sapiens, UniProt O96017)
[11] = target: each individual kinase of the panel (Mus musculus, UniProt P16277)
Chain of each individual kinase of the panel (Mus musculus, UniProt P16277) (P16277 2-499 limits assumed): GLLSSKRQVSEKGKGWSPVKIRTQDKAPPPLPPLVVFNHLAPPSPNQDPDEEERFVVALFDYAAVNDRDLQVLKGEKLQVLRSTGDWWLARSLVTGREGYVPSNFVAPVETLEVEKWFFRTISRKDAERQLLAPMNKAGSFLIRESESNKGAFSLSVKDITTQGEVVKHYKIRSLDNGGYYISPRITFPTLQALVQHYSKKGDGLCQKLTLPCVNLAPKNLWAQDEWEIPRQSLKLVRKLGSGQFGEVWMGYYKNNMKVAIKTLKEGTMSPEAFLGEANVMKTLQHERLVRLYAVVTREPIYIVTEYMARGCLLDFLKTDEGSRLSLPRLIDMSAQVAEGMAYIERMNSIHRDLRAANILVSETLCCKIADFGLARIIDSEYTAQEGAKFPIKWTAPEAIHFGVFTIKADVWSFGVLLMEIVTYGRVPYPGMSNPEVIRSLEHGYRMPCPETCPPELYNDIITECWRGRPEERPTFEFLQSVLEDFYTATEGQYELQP

[12] = target: each individual kinase of the panel (Homo sapiens, UniProt Q9HBY8)
[13] = target: each individual kinase of the panel (Homo sapiens, UniProt P43250)
[14] = target: each individual kinase of the panel (Homo sapiens, UniProt O96017, R145W)
[15] = target: each individual kinase of the panel (Homo sapiens, UniProt Q12866)
Chain of each individual kinase of the panel (Homo sapiens, UniProt Q12866) (Q12866 21-999 limits assumed): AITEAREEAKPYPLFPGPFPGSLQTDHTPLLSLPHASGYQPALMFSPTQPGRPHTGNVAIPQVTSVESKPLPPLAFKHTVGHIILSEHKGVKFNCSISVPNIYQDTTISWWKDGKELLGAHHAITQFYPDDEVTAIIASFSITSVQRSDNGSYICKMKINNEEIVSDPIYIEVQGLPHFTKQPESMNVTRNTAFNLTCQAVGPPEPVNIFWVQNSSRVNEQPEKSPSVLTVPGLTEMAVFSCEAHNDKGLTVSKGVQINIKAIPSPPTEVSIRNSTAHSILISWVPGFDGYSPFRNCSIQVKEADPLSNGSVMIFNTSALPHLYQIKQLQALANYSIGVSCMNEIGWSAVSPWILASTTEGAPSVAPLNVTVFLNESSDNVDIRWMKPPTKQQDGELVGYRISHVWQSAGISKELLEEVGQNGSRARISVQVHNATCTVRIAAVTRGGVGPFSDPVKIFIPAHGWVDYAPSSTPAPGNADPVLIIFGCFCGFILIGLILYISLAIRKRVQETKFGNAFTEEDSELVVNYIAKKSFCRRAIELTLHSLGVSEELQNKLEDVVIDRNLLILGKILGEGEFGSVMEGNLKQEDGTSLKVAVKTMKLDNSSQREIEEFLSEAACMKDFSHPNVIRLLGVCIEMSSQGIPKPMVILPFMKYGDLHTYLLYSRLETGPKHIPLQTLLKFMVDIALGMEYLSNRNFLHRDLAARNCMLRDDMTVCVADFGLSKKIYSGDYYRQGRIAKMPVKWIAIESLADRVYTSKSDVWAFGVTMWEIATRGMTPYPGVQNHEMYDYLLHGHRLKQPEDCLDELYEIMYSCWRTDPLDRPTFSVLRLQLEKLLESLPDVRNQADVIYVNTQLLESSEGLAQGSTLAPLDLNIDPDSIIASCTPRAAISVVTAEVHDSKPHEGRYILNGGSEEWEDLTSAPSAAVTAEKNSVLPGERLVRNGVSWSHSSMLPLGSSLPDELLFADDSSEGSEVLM

[16] = target: each individual kinase of the panel (Homo sapiens, UniProt Q9Y3S1)
[17] = target: each individual kinase of the panel (Homo sapiens, UniProt P29322)
Chain of each individual kinase of the panel (Homo sapiens, UniProt P29322) (P29322 28-1005 limits assumed): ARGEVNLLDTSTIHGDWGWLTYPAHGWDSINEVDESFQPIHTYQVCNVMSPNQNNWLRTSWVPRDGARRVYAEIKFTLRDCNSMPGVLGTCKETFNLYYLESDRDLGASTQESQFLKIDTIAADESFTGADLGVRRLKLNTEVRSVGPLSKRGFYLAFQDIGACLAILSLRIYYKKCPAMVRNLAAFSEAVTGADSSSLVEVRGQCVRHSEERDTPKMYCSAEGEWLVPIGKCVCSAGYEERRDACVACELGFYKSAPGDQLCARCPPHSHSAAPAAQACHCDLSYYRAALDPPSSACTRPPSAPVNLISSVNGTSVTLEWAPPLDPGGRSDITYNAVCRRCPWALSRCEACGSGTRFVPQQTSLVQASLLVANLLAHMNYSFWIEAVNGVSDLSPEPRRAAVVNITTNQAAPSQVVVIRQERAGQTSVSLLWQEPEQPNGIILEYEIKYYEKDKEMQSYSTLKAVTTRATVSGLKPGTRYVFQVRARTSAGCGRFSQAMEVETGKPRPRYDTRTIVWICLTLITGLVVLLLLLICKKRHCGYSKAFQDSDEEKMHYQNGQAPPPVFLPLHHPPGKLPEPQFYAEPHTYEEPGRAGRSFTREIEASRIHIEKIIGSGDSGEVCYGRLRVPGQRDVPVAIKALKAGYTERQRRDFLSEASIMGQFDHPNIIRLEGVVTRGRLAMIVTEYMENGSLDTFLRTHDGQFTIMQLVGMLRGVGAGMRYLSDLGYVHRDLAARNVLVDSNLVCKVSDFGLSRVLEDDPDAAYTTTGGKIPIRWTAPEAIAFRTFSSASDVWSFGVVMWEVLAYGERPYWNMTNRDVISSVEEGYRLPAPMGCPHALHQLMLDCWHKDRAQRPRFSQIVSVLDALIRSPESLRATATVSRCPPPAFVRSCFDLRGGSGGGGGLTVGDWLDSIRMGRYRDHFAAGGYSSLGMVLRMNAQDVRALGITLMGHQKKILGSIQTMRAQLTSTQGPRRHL

[18] = target: each individual kinase of the panel (Homo sapiens, UniProt O96017, I157T)
[19] = target: each individual kinase of the panel (Homo sapiens, UniProt Q86Y07)
[20] = target: each individual kinase of the panel (Homo sapiens, UniProt Q96PF2)
[21] = target: each individual kinase of the panel (Homo sapiens, UniProt Q13237)
Chain of each individual kinase of the panel (Homo sapiens, UniProt Q13237) (Q13237 2-762 limits assumed): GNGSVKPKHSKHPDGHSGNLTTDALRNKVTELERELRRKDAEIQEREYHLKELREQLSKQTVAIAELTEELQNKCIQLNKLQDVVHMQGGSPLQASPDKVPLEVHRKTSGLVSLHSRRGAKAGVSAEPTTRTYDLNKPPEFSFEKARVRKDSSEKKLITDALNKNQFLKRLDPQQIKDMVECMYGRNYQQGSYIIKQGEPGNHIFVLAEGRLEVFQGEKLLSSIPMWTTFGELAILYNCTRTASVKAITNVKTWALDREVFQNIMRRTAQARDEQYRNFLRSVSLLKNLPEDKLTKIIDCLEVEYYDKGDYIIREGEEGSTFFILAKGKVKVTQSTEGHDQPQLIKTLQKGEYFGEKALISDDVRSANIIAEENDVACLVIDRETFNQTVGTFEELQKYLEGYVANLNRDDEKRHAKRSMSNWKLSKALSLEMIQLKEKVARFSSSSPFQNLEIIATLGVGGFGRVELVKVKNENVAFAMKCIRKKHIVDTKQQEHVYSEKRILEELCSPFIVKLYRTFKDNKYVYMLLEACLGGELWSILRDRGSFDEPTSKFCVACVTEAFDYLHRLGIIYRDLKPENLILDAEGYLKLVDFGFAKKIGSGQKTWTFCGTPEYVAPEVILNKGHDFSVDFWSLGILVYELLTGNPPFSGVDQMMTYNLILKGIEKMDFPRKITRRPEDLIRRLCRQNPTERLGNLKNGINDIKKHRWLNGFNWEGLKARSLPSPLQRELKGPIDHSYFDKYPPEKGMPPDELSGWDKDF

[22] = target: each individual kinase of the panel (Homo sapiens, UniProt Q96RG2)
[23] = target: each individual kinase of the panel (Homo sapiens, UniProt P52333)
[24] = target: each individual kinase of the panel (Homo sapiens, UniProt Q16620)
Chain of each individual kinase of the panel (Homo sapiens, UniProt Q16620) (Q16620 32-822 limits assumed): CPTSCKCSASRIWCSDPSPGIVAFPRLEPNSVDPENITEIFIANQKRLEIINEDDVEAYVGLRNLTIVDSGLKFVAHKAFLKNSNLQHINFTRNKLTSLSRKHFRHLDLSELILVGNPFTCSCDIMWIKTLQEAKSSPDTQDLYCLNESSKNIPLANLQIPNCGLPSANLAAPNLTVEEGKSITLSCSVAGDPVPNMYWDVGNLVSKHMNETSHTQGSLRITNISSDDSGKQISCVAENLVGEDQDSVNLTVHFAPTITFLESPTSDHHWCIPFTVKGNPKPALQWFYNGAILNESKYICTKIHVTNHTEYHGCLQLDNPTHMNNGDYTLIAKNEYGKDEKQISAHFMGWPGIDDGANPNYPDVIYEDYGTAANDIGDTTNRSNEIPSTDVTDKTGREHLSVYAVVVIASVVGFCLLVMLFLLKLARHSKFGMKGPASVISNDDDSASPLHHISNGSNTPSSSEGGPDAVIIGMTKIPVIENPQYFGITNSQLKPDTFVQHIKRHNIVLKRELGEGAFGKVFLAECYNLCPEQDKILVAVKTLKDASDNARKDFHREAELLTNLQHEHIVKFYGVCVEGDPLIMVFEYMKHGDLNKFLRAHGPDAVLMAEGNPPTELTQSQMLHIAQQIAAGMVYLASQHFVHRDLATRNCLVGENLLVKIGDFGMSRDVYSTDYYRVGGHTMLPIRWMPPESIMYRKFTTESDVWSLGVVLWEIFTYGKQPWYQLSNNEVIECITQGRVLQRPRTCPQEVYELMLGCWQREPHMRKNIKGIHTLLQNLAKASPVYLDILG

[25] = target: each individual kinase of the panel (Homo sapiens, UniProt P80192)
[26] = target: each individual kinase of the panel (Homo sapiens, UniProt Q9HBH9)

SMILES: O=C(O)c1ccc2c(c1)nc(Nc1cccc(Cl)c1)c1ccncc12 [drawing 1136]
- CK2 alpha 2 percentage of activity [1]: 103%
- TAK1 percentage of activity [2]: 4%
- LYN percentage of activity [3]: 13%
- GRK5 percentage of activity [4]: 74%
- PRKCT percentage of activity [5]: −3%
- TSSK1 percentage of activity [6]: −12%
- p38-gamma percentage of activity [7]: 21%
- PRKCG percentage of activity [8]: 6%
- eEF−2K(h) percentage of activity [9]: 3%
- CHK2 percentage of activity [10]: 20%
- Blk(m) percentage of activity [11]: 14%
- SGK2 percentage of activity [12]: 4%
- GRK6 percentage of activity [13]: 44%
- CHK2(R145W) (h) percentage of activity [14]: 6%
- MER percentage of activity [15]: 82%
- WNK2 percentage of activity [16]: 4%
- EPHA8 percentage of activity [17]: −10%
- CHK2(1157T) (h) percentage of activity [18]: 15%
- VRK2 percentage of activity [19]: −3%
- TSSK2 percentage of activity [20]: −11%
- PRKG2 percentage of activity [21]: −10%
- PASK percentage of activity [22]: 85%
- JAK3 percentage of activity [23]: 37%
- TRKB percentage of activity [24]: 24%
- MLK1 percentage of activity [25]: 43%
- Mnk2 percentage of activity [26]: 79%
